Source: US20050209157A1, “Short bioactive peptides and methods for their use” (priority 2001, published 2005)
In brackets after ≈: the same amount, converted by molar mass. Where two headings read alike, the source gives them in different places. No end group written: not given here.

Key:
[1] = test system: Pseudomonas aeruginosa ATCC 9027; test: Antimicrobial assay I, MIC by OD measurement; format: cell-based
WI38 = conditions: Table 27
[2] = test system: Escherichia coli ATCC 25922; test: Antimicrobial assay I, modified protocol (tryptic soy broth), MBC; conditions: minimum bactericidal concentration, Table 4
[3] = test system: Stapholococcus aureus ATCC 25923; test: as above; conditions: minimum bactericidal concentration, Table 4
in vitro [4] = format: cell-based, human; conditions: human, human red blood cells
[5] = test system: Pseudomonas aeruginosa ATCC 27853; test: Antimicrobial assay I, modified protocol (tryptic soy broth), MBC; conditions: minimum bactericidal concentration, Table 4
in vitro [6] = conditions: human, WI38 normal lung fibroblast cells
[7] = test system: Candida albicans ATCC 10231; test: Antimicrobial assay I, modified protocol (tryptic soy broth), MFC; conditions: minimum fungicidal concentration, Table 4
[8] = test system: human leukocyte (WBC) cells; test: Stimulation and proliferation of leukocytes, Alamar Blue; format: cell-based; conditions: compared to untreated positive control cells; Alamar Blue
Description: In vitro viability of human leukocyte cells in the presence of different peptides at different concentrations was determined by an Alamar Blue protocol. Alamar Blue (Promega, Madison, Wis.) is an indicator dye, formulated to measure quantitatively the proliferation and cytotoxicity of the cells. The dye consists of an oxidation-reduction (redox) indicator that yields a calorimetric change and a fluorescent signal in response to cellular metabolic activity.
Assay protocol: Blood from a human was drawn and centrifuged at 1500 rpm for 15 minutes at room temperature. The buffy coat cells at the plasma-red blood cell interface were aspirated. Buffy coat cells (mainly lymphocyte cells) were then transferred into 15 ml centrifuge tubes containing 5 ml of RPMI-1640 medium+10% Fetal Bovine Serum (Gibco, Grand Island, N.Y.). Additional medium was added to the tubes to bring the volume up to 10 ml. The buffy coat suspension was then carefully layered on 5 ml of Histopaque (Sigma Chemical Co., St. Louis, Mo.) and centrifuged at 1500 rpm for 30 minutes at room temperature. The interface which is mostly PBMCs (peripheral mononuclear cells) was aspirated and transferred to a 15 ml conical centrifuge tube and, resuspended in 2 ml cold RPMI-1640 and brought up to 15 ml with cold RPMI-1640 medium. Cells were centrifuged at 1500 rpm for 10 minutes. The supernatant was then aspirated and discarded. The cell pellet was re-suspended in 1 ml of cold RPMI 1640 and brought up to 15 ml with RPMI medium. This step was repeated twice, except that in the last step, the cells were resuspended with 1 ml of cold RPMI-1640 medium and cell counts were performed with a hemocytometer according to the Sigma cell culture catalogue.
Pokewood mitogen was used as a control along with positive and negative controls. Negative control cells were killed with 70% methanol. Positive (+) control cells were incubated in RPMI medium (untreated). […] of AlamarBlue was added to the cells, and readings were taken after 24 hours, 48 hours, 72 hours, and 96 hours using a fluorimeter (excitation 544/transmission 590 nm).
Calculations were performed using the following formula. The peptide treated sample and positive control were adjusted for negative control. [formula]
Using the protocol described immediately above, about 100-150 peptides were screened for their stimulatory and/or inhibitory actions upon the growth of human leukocyte (“WBC”) cells as compared to the growth of untreated positive control cells.
The Alamar Blue stain used in the protocol permeates both cell and nuclear membranes, and is metabolized in the mitochondria to cause the change in color. The resulting fluorometric response is therefore a result of total mitochondrial activity caused by cell stimulation and/or mitosis (cell proliferation).

[9] = test system: human red blood cells (RBC); test: in vitro; format: cell-based; conditions: hemolytic assay, concentration at 50% hemolysis, 1 hour at 37° C.
P. aeruginosa H374 = format: cell-based, Pseudomonas aeruginosa; conditions: mean of three; 16 to 20 hours at 35° C.
S. typhimurium 14028S = format: cell-based, Salmonella typhimurium; conditions: mean of three; 16 to 20 hours at 35° C.; in µg/mL
E. coli UB1005 = format: cell-based, Escherichia coli; conditions: mean of three; 16 to 20 hours at 35° C.; in µg/mL
BMKC = test: Anti-cancer assay, MTT, LD50; format: cell-based; conditions: BMKC cloned melanoma line, 24 hours with peptide
Text: (§1) Numbers are LD50 values (μg/mL).

MCF7 = test: Anti-cancer assay, MTT, LD50; format: cell-based; conditions: MCF7 breast adenocarcinoma line, MTT, 24 hours with peptide
Text: as §1

SW480 = test: Anti-cancer assay, MTT, LD50; format: cell-based; conditions: SW480 colon adenocarcinoma line, 24 hours with peptide
Text: as §1

[10] = pH 7, Table 26, valine substitution, read-out: Hemolysis RBC LD50
[11] = WI-38 LD50, Table 26, valine substitution
[12] = pH 7, hemolytic assay, concentration at 50% hemolysis, 1 hour at 37° C., read-out: LD50

Molecule	MBC E. coli A.25922 [2]	MBC S. aur A.25923 [3]	MBC P. aerug A.27853 [5]	MFC Candida A.10231 [7]	also measured
CC(C)C[C@H](NC(=O)[C@H](C)NC(=O)[C@H](CC(C)C)NC(=O)[C@H](CCCCN)NC(=O)[C@H](C)NC(=O)[C@H](CC(C)C)NC(=O)[C@H](CCCCN)NC(=O)[C@H](CCCCN)NC(=O)[C@H](C)NC(=O)[C@H](CC(C)C)NC(=O)[C@H](CCCCN)NC(=O)[C@H](C)NC(=O)[C@H](CC(C)C)NC(=O)[C@H](CCCCN)NC(=O)[C@H](CCCCN)NC(=O)[C@H](C)NC(=O)[C@@H](N)Cc1ccccc1)C(N)=O [compound 35]	8 µg/mL (≈ 4.31 µM)	10 µg/mL (≈ 5.39 µM)	8 µg/mL (≈ 4.31 µM)	>40 µg/mL	P. aerug (MIC) [1]: 200 µg/mL; WI38 LD50 (WI38): 25 µg/mL; HC50 at 1 h (in vitro [4]; [10]): 150 µg/mL; HC50 at 1 h (in vitro [4]; pH 7, Table 27, read-out: Hemolysis (LD50)): 100 µg/mL; CC50 at 24 h (in vitro [6]; [11]): 25 µg/mL (≈ 13.5 µM)
VALALKALKKALKKLKKALKKAL-NH2 [compound 30]	10 µg/mL	40 µg/mL	15 µg/mL	>50 µg/mL	HC50 at 1 h (in vitro [4]; [10]): 150 µg/mL; CC50 at 24 h (in vitro [6]; [11]): 93 µg/mL
FALALKALKKLAKKLKKLAKKAL-NH2 [compound 25]	40 µg/mL	40 µg/mL	30 µg/mL	>50 µg/mL	HC50 at 1 h (in vitro [4]; [10]): 16 µg/mL; CC50 at 24 h (in vitro [6]; [11]): 24 µg/mL
VALALKALKKLAKKLKKLAKKAL-NH2 [P509]					HC50 at 1 h (in vitro [4]; [12]): 40 µg/mL; stimulatory and/or inhibitory action on growth of human leukocyte (WBC) cells [8]: stimulatory (and/or proliferative) at all concentrations through 500 μg/ml
FAKKLAKKLKKLAKKLAK-OH [Shiva 10(1-18_AC]					LD50 [9]: > (> indicates greater than 1000)
FAKKLAKKLKKLAKLALAL-OH [P29]					P. aeruginosa H374 MIC (P. aeruginosa H374): 16 µg/mL; S. typhimurium 14028S MIC (S. typhimurium 14028S): 8; HC50 at 1 h (in vitro [4]; [12]): 250 µg/mL; CC50 at 24 h (in vitro [6]; LD50 WI38, WI38 normal lung fibroblast line, MTT, 24 hours with peptide): 520 µg/mL; E. coli UB1005 MIC (E. coli UB1005): 8; LD50 BMKC (BMKC): 300 µg/mL; LD50 MCF7 (MCF7): 140 µg/mL; LD50 SW480 (SW480): 210 µg/mL
FALALKALKKLLKKLKKLAKKAL-NH2 [compound 24]	>80 µg/mL	>40 µg/mL	30 µg/mL	>50 µg/mL	HC50 at 1 h (in vitro [4]; [10]): 10 µg/mL; CC50 at 24 h (in vitro [6]; [11]): 55 µg/mL
FAKLFAKLAKKFAL-NH2 [compound 121]	INACT	INACT	INACT	50 µg/mL	
CC(C)C[C@H](NC(=O)[C@H](CCCCN)NC(=O)[C@H](CCCCN)NC(=O)[C@H](Cc1c[nH]c2ccccc12)NC(=O)[C@@H](N)CCCCN)C(N)=O [compound 173]	>250 µg/mL	>250 µg/mL	>250 µg/mL	150 µg/mL (≈ 214 µM)	
CC(C)C[C@H](NC(=O)[C@H](CCCCN)NC(=O)[C@H](CC(C)C)NC(=O)[C@H](CCCCN)NC(=O)[C@H](C)NC(=O)[C@H](CC(C)C)NC(=O)[C@H](CCCCN)NC(=O)[C@H](C)NC(=O)[C@H](CC(C)C)NC(=O)[C@H](CC(C)C)NC(=O)[C@H](CCCCN)NC(=O)[C@H](C)NC(=O)[C@@H](N)Cc1ccccc1)C(N)=O [compound 66]	40 µg/mL (≈ 27.5 µM)	30 µg/mL (≈ 20.6 µM)	50 µg/mL (≈ 34.3 µM)	40 µg/mL (≈ 27.5 µM)	
CC(C)C[C@H](NC(=O)[C@H](CCCCN)NC(=O)[C@H](C)NC(=O)[C@H](CCCCN)NC(=O)[C@H](C)NC(=O)[C@H](CC(C)C)NC(=O)[C@H](CCCCN)NC(=O)[C@H](C)NC(=O)[C@H](CC(C)C)NC(=O)[C@H](CC(C)C)NC(=O)[C@H](CCCCN)NC(=O)[C@H](C)NC(=O)[C@@H](N)Cc1ccccc1)C(N)=O [compound 65]	>55 µg/mL	>55 µg/mL	>50 µg/mL	>50 µg/mL	
CC(C)C[C@H](NC(=O)[C@H](CC(C)C)NC(=O)[C@H](CCCCN)NC(=O)[C@H](CCCCN)NC(=O)[C@H](C)NC(=O)[C@H](C)NC(=O)[C@H](CC(C)C)NC(=O)[C@H](CCCCN)NC(=O)[C@H](CC(C)C)NC(=O)[C@H](CC(C)C)NC(=O)[C@H](CCCCN)NC(=O)[C@H](C)NC(=O)[C@@H](N)Cc1ccccc1)C(N)=O [compound 56]	50 µg/mL (≈ 34.3 µM)	55 µg/mL (≈ 37.8 µM)	10 µg/mL (≈ 6.87 µM)	30 µg/mL (≈ 20.6 µM)	
CC(C)C[C@H](NC(=O)[C@H](C)NC(=O)[C@H](CCCCN)NC(=O)[C@H](CCCCN)NC(=O)[C@H](C)NC(=O)[C@H](CC(C)C)NC(=O)[C@H](CCCCN)NC(=O)[C@H](C)NC(=O)[C@H](CC(C)C)NC(=O)[C@H](CC(C)C)NC(=O)[C@H](CCCCN)NC(=O)[C@H](C)NC(=O)[C@@H](N)Cc1ccccc1)C(N)=O [compound 54]	15 µg/mL (≈ 10.6 µM)	15 µg/mL (≈ 10.6 µM)	40 µg/mL (≈ 28.3 µM)	30 µg/mL (≈ 21.2 µM)	
CC(C)C[C@H](NC(=O)[C@H](CCCCN)NC(=O)[C@H](C)NC(=O)[C@H](CC(C)C)NC(=O)[C@H](CC(C)C)NC(=O)[C@H](CCCCN)NC(=O)[C@H](C)NC(=O)[C@@H](N)Cc1ccccc1)C(=O)N[C@@H](C)C(=O)N[C@@H](CCCCN)C(=O)N[C@@H](C)C(=O)N[C@@H](CCCCN)C(=O)NCC(N)=O [compound 96]	>50 µg/mL	>50 µg/mL	>50 µg/mL	>50 µg/mL	
